Measurements: US20040171566A1, “Antisense modulation of p38 mitogen activated protein kinase expression” (priority 1999, published 2004)
e = 2'-O-(2-methoxyethyl) (MOE); d = 2'-deoxy (DNA)

Columns and labels:
mouse p38α mRNA = assay: Mouse p38α mRNA levels in bEND.3 cells, quantitative real-time PCR; assay type: cell-based; parameters: % Inhib. mouse p38α: concentration or dose not given beside the values; details: bEND.3 cells, mRNA by quantitative real-time PCR, average of two experiments
Text: (§1) Quantitation of p38α mRNA levels was accomplished by real-time quantitative PCR using the ABI PRISM™ 7600, 7700, or 7900 Sequence Detection System (PE-Applied Biosystems, Foster City, Calif.) according to manufacturer's instructions. This is a closed-tube, non-gel-based, fluorescence detection system which allows high-throughput quantitation of polymerase chain reaction (PCR) products in real-time. As opposed to standard PCR in which amplification products are quantitated after the PCR is completed, products in real-time quantitative PCR are quantitated as they accumulate. This is accomplished by including in the PCR reaction an oligonucleotide probe that anneals specifically between the forward and reverse PCR primers, and contains two fluorescent dyes. A reporter dye (e.g., FAM or JOE, obtained from either PE-Applied Biosystems, Foster City, Calif., Operon Technologies Inc., Alameda, Calif. or Integrated DNA Technologies Inc., Coralville, Iowa) is attached to the 5′ end of the probe and a quencher dye (e.g., TAMRA, obtained from either PE-Applied Biosystems, Foster City, Calif., Operon Technologies Inc., Alameda, Calif. or Integrated DNA Technologies Inc., Coralville, Iowa) is attached to the 3′ end of the probe. When the probe and dyes are intact, reporter dye emission is quenched by the proximity of the 3′ quencher dye. During amplification, annealing of the probe to the target sequence creates a substrate that can be cleaved by the 5′-exonuclease activity of Taq polymerase. […] With each cycle, additional reporter dye molecules are cleaved from their respective probes, and the fluorescence intensity is monitored at regular intervals by laser optics built into the ABI PRISM™ Sequence Detection System. In each assay, a series of parallel reactions containing serial dilutions of mRNA from untreated control samples generates a standard curve that is used to quantitate the percent inhibition after antisense oligonucleotide treatment of test samples.
(§2) Prior to quantitative PCR analysis, primer-probe sets specific to the target gene being measured are evaluated for their ability to be “multiplexed” with a GAPDH amplification reaction. In multiplexing, both the target gene and the internal standard gene GAPDH are amplified concurrently in a single sample. In this analysis, mRNA isolated from untreated cells is serially diluted. Each dilution is amplified in the presence of primer-probe sets specific for GAPDH only, target gene only (“single-plexing”), or both (multiplexing). Following PCR amplification, standard curves of GAPDH and target mRNA signal as a function of dilution are generated from both the single-plexed and multiplexed samples. If both the slope and correlation coefficient of the GAPDH and target signals generated from the multiplexed samples fall within 10% of their corresponding values generated from the single-plexed samples, the primer-probe set specific for that target is deemed multiplexable. Other methods of PCR are also known in the art.
(§3) PCR reagents were obtained from Invitrogen Corporation, (Carlsbad, Calif.). […] The RT reaction was carried out by incubation for 30 minutes at 48° C. Following a 10 minute incubation at 95° C. to activate the PLATINUM® Taq, 40 cycles of a two-step PCR protocol were carried out: 95° C. for 15 seconds (denaturation) followed by 60° C. for 1.5 minutes (annealing/extension).
(§4) Gene target quantities obtained by real time RT-PCR are normalized using either the expression level of GAPDH, a gene whose expression is constant, or by quantifying total RNA using RiboGreen™ (Molecular Probes, Inc. Eugene, Oreg.). GAPDH expression is quantified by real time RT-PCR, by being run simultaneously with the target, multiplexing, or separately. Total RNA is quantified using RiboGreen™ RNA quantification reagent (Molecular Probes, Inc. Eugene, Oreg.). Methods of RNA quantification by RiboGreen™ are taught in Jones, L. J., et al, (Analytical Biochemistry, 1998, 265, 368-374). […]

rat p38α mRNA = assay: Rat p38α mRNA levels in NR-8383 cells, quantitative real-time PCR; assay type: cell-based; details: 300 nM oligonucleotide with FuGENE 6, 24 hours, mRNA by quantitative real-time PCR, average of two experiments
Text: as §1, §2, §3, §4

| Substance | % Inhib. mouse p38α (mouse p38α mRNA) [%] | % Inhib. rat p38α (rat p38α mRNA) [%] |
| --- | --- | --- |
| 320146 (antisense GGCACTGGAGACCTCTGCAC; sugars from the 5' end e5 d10 e5, all phosphorothioate, methylation of C not given here) [compound 320146] | 74 | 57 |
| 320117 (antisense GGAGATTTTCTTCAGAAGCT; sugars from the 5' end e5 d10 e5, all phosphorothioate, methylation of C not given here) [compound 320117] | 72 | 55 |
| 320111 (antisense GTCAACAGCTCAGCCATGAT; sugars from the 5' end e5 d10 e5, all phosphorothioate, methylation of C not given here) [compound 320111] | 86 | 55 |
| 320142 (antisense GAGCCAGTTGGTTCTCTTGG; sugars from the 5' end e5 d10 e5, all phosphorothioate, methylation of C not given here) [compound 320142] | 85 | 53 |
| 320138 (antisense TAAAGGCAGGGCCACAGGAG; sugars from the 5' end e5 d10 e5, all phosphorothioate, methylation of C not given here) [compound 320138] | 87 | 46 |
| 320124 (antisense GGATTGGCACCAATAAATAC; sugars from the 5' end e5 d10 e5, all phosphorothioate, methylation of C not given here) [compound 320124] | 29 | 31 |
| 320123 (antisense CAATAAATACATTTGCGAAG; sugars from the 5' end e5 d10 e5, all phosphorothioate, methylation of C not given here) [compound 320123] | 79 | 32 |
| 320125 (antisense GCTGCTGTGATCCTCTTATC; sugars from the 5' end e5 d10 e5, all phosphorothioate, methylation of C not given here) [compound 320125] | 67 | 63 |
| 320112 (antisense CGTTCTTCCGGTCAACAGCT; sugars from the 5' end e5 d10 e5, all phosphorothioate, methylation of C not given here) [compound 320112] | 93 | 58 |
| 320141 (antisense GCATGGCTGAGGGATAGCCT; sugars from the 5' end e5 d10 e5, all phosphorothioate, methylation of C not given here) [compound 320141] | 83 | 73 |
| 320153 (antisense AATATTAAAATAATTTGCCC; sugars from the 5' end e5 d10 e5, all phosphorothioate, methylation of C not given here) [compound 320153] | 0 | 22 |
| 320169 (antisense TTTGTTCTCACCTCATGGCT; sugars from the 5' end e5 d10 e5, all phosphorothioate, methylation of C not given here) [compound 320169] | 92 | 64 |
| 320150 (antisense GGATTCCTACAACATACAAA; sugars from the 5' end e5 d10 e5, all phosphorothioate, methylation of C not given here) [compound 320150] | 82 | 62 |
| 320110 (antisense TCATCAGTGTGCCGAGCCAG; sugars from the 5' end e5 d10 e5, all phosphorothioate, methylation of C not given here) [compound 320110] | 87 | 54 |
| 320132 (antisense TATTTGGAGAGTTCCCATGA; sugars from the 5' end e5 d10 e5, all phosphorothioate, methylation of C not given here) [compound 320132] | 85 | 56 |
| 320165 (antisense TGCCTCATGGCTTGGCATCC; sugars from the 5' end e5 d10 e5, all phosphorothioate, methylation of C not given here) [compound 320165] | 81 | 53 |
| 320170 (antisense TGCTGGCTATACACAGACAC; sugars from the 5' end e5 d10 e5, all phosphorothioate, methylation of C not given here) [compound 320170] | 83 | 55 |
| 320168 (antisense TCACCTCATGGCTTGGCATC; sugars from the 5' end e5 d10 e5, all phosphorothioate, methylation of C not given here) [compound 320168] | 83 | 56 |
| 320156 (antisense GGAATTGGCTTTACACTTTC; sugars from the 5' end e5 d10 e5, all phosphorothioate, methylation of C not given here) [compound 320156] | 91 | 64 |
| 320115 (antisense GGGTTCCAACGAGTCTTAAA; sugars from the 5' end e5 d10 e5, all phosphorothioate, methylation of C not given here) [compound 320115] | 67 | 53 |
| 101755 (antisense CATCATCAGGGTCGTGGTAC; sugars from the 5' end e5 d10 e5, all phosphorothioate, methylation of C not given here) [compound 101755] | 84 | 74 |
| 320159 (antisense TCTGACATCCTATGGCATAC; sugars from the 5' end e5 d10 e5, all phosphorothioate, methylation of C not given here) [compound 320159] | 94 | 69 |
| 320103 (antisense AGCTCCTGCCGGTAGAACGT; sugars from the 5' end e5 d10 e5, all phosphorothioate, methylation of C not given here) [compound 320103] | 81 | 55 |
| 320164 (antisense CTTGGCATCCTGTTAATGAG; sugars from the 5' end e5 d10 e5, all phosphorothioate, methylation of C not given here) [compound 320164] | 80 | 73 |
| 320152 (antisense TTTGCCCTTTCTCCCCATCA; sugars from the 5' end e5 d10 e5, all phosphorothioate, methylation of C not given here) [compound 320152] | 93 | 66 |
| 320104 (antisense TCAAAAGCAGCACACACCGA; sugars from the 5' end e5 d10 e5, all phosphorothioate, methylation of C not given here) [compound 320104] | 82 | 42 |
